Experimental data: patent US20230000896A1, “ALDH3A2 INHIBITION AND FERROPTOSIS INDUCTION FOR CANCER THERAPY” (President and Fellows of Harvard College, priority 2019, published 2023)
Residues, ends and D or L forms follow the SMILES beside them. *: point of attachment. Cbz = O=C(OCc1ccccc1)*; CH2F = FC*

Tests used:
[1] = tested on: THP-1 cells; assay: growth kinetics of ALDH3A2-depleted THP-1 cells treated with NAC; assay type: cell-based, human; conditions: 10 mM NAC, FIG. 12D
Protocol: In cells cultured in [1,2-^13C2]glucose, the oxPPP generates singly ^13C labeled (M1) intermediates, glycolysis generates doubly 13C labeled (M2) intermediates, and the M1/M2 ratio reflects the oxPPP flux relative to glycolysis (FIG. 12E). […] Cells lacking ALDH3A2 thus fail to increase antioxidant defense mechanisms to mitigate the increased oxidative stress and prevent lipid peroxidation.
(§1) RSL3 (at 5 uM), 4-HNE (5 uM) and ZVAD (at 10 uM) was added to Lin-Kit- or Lin-Kit+ leukemic cells in RPMI containing 10 ng/ul of murine IL3, IL6 and SCF. Ferrostatin (10 uM) was added to bulk leukemic cells in RPMI containing 10 ng/ul of murine IL3, TPO and FLT3L. Number of cells were measured by Celltiter GloR 2.0 assay at days 0, 1 and 3. 10 mM of NAC was added to RPMI with 10 percent FBS and 1 percent P/S for relevant rescue experiments. Drugs were purchased from Sigma.

[2] = tested on: Aldh3a2; assay: Q-PCR validation of Aldh3a2 knockdown in L-GMPs; assay type: cell-based, mouse; conditions: FIG. 2B
Protocol: (§2) However, its functional role in normal and malignant hematopoiesis is unclear. […] Aldh3a2 knockdown in L-GMPs decreased the number of cells in a methylcellulose assay (FIG. 2C and FIG. 9A) that quantifies growth on a per cell basis.
RNA was extracted from cells using the RNeasy Micro Kit (Qiagen) and RT-PCR was performed using the SuperScript™ IV One-Step RT-PCR System according to the manufacturer's instructions. Taqman probes were used to perform Q-PCR for murine and human Aldh3a2.

[3] = tested on: L-GMPs; assay: methylcellulose assay of shRNA-infected L-GMPs; assay type: cell-based, mouse; conditions: compared to control shRNA, FIG. 2C
Protocol: as §2
(§3) Ten thousand N-GMPs or L-GMPs infected with lentiviruses expressing relevant shRNAs were added to 3 cc of methylcellulose (StemCell Technologies) plated per well of a 6 well plate. Number of cells were counted on day 7.

[4] = tested on: MLL-AF9 leukemia (L-GMPs); assay: survival of sublethally irradiated C57BL/6J mice transplanted with shRNA-expressing L-GMPs; assay type: in vivo, mouse; conditions: ten thousand L-GMPs transplanted, vs control shRNA, FIG. 2D
Excerpt: To evaluate Aldh3a2 knockdown in vivo, ten thousand L-GMPs expressing Aldh3a2-sh-1, Aldh3a2-sh-2 or control shRNA were transplanted into sublethally irradiated C57BL/6J recipient mice and followed over time.

[5] = tested on: N-GMPs; assay: methylcellulose assay of shRNA-infected N-GMPs; assay type: cell-based, mouse; conditions: compared to control shRNA, FIG. 3A
Excerpt: Then a constitutive knockout mouse model (KO) was utilized where Aldh3a2 enzyme activity was decreased to less than 50 percent of wild-type (WT) control mice (FIG. 3B). (This model consists of a deletion of exon 4 of the Aldh3a2 gene which completely destroys Aldh3a2 enzyme activity but assays of cell homogenates measure total fatty aldehyde oxidizing activity including aldehyde dehydrogenases other than Aldh3a2).
as §3

[6] = tested on: leukemic stem and progenitor cells (LSPCs); assay: cellular ROS by flow cytometry in Aldh3a2-control and mutant LSPCs; assay type: cell-based, mouse; conditions: FIG. 5C
Excerpt: (§4) Aldehyde dehydrogenases metabolize aldehydes to mitigate oxidative stress and prevent lipid peroxidation in the cell. […] Next, oxidative damage in AML cells lacking Aldh3a2 was examined. […] To further assess deficits in detoxification capacity, the effects of 4-hydroxynonenal (4-HNE) was studied next, a commonly investigated fatty aldehyde and a byproduct of arachidonic acid catabolism, on cellular ROS, lipid peroxidation and proliferation in Aldh3a2-deficient leukemia stem and progenitor cells. […] Lastly, normal granulocyte monocyte precursors (N-GMPs) were investigated. […] Spleens from Aldh3a2-Ctrl and Aldh3a2-mut mice were utilized to obtain single cell suspensions and were incubated with C11 Bodipy lipid peroxidation sensor (ThermoFisher Cat #C10445) or CellRox reagent (ThermoFisher Cat #C10491) for 30 minutes at […]. Cells were stained with biotinylated antibodies against lineage markers, SA-Pacific Orange conjugate (ThermoFisher) and APC Rat Anti-Mouse CD117 (BD Biosciences) and read on the LSRII flow cytometer. Lipid peroxidation and cellular ROS was assessed in Lineage-, c-Kit^+ and Lineage^−, c-Kit^hi populations. RSL3 (at 5 uM), 4-HNE (5 uM) and ZVAD (at 10 uM) was added to Lin-Kit- or Lin-Kit+ leukemic cells in RPMI containing 10 ng/ul of murine IL3, IL6 and SCF. […] Number of cells were measured by Celltiter GloR 2.0 assay at days 0, 1 and 3. […]

[7] = tested on: leukemic stem and progenitor cells (LSPCs); assay: lipid peroxidation by flow cytometry in Aldh3a2-control and mutant LSPCs; assay type: cell-based, mouse; conditions: FIG. 5D
Excerpt: as §4

[8] = tested on: leukemic stem and progenitor cells (LSPCs); assay: growth kinetics of Aldh3a2-control and mutant LSPCs treated with 4HNE; assay type: cell-based, mouse; conditions: 4-HNE 5 uM, FIG. 5E
Excerpt: Aldehyde dehydrogenases metabolize aldehydes to mitigate oxidative stress and prevent lipid peroxidation in the cell. […] Next, oxidative damage in AML cells lacking Aldh3a2 was examined. […] To further assess deficits in detoxification capacity, the effects of 4-hydroxynonenal (4-HNE) was studied next, a commonly investigated fatty aldehyde and a byproduct of arachidonic acid catabolism, on cellular ROS, lipid peroxidation and proliferation in Aldh3a2-deficient leukemia stem and progenitor cells. […] Lastly, normal granulocyte monocyte precursors (N-GMPs) were investigated. […] RSL3 (at 5 uM), 4-HNE (5 uM) and ZVAD (at 10 uM) was added to Lin-Kit- or Lin-Kit+ leukemic cells in RPMI containing 10 ng/ul of murine IL3, IL6 and SCF. Ferrostatin (10 uM) was added to bulk leukemic cells in RPMI containing 10 ng/ul of murine IL3, TPO and FLT3L. Number of cells were measured by Celltiter GloR 2.0 assay at days 0, 1 and 3. 10 mM of NAC was added to RPMI with 10 percent FBS and 1 percent P/S for relevant rescue experiments. Drugs were purchased from Sigma.

[9] = tested on: Aldh3a2-control and mutant leukemic cells; assay: fatty acid rescue experiments (viability by flow cytometry); assay type: cell-based, mouse; conditions: FIG. 12H
Protocol: By detoxifying fatty aldehydes, Aldh3a2 generates fatty acids that can be used for biosynthetic purposes (FIG. 12A). […] To further investigate the consequences of this depletion of 18-carbon fatty acids in Aldh3a2 knockout cells lipidomics analysis was performed on leukemic cells derived from conditional knockout mice (FIGS. 13A-13E). Several, but not all, phospholipid species containing 18-carbon fatty acid tails were decreased in mutant cells across lipid classes, including phosphatidylcholines, phosphatidylethanolamines, cardiolipins and phosphatidic acids (FIGS. 13A-13D).
Cell viability was analyzed using Annexin V-APC (BioLegend) and 7-AAD (ThermoFisher Scientific) with Annexin V^−7-AAD^− cells considered as viable cells. Analysis was performed on A BD LSR II flow cytometer.
Bulk GFP+ cells sorted from wildtype or mutant mice were plated in a 24 well plate at 50,000 cells per well. Oleic acid (Sigma), complexed to fatty acid-free bovine serum albumin, was added at concentrations of 62.5, 125 or 250 μM. Ethanol/albumin was used as control. 72 hours later cell viability was analyzed by flow cytometry.

[10] = tested on: Aldh3a2-control and mutant LSPCs; assay: frequency of live Aldh3a2-control and mutant LSPCs after drug treatment; assay type: cell-based, mouse; conditions: three days
Excerpt: The specific mechanism for the reduced number of leukemic cells upon Aldh3a2 deletion was next investigated.
Lipid peroxidation has been linked to the induction of ferroptosis, a non-apoptotic, iron-dependent form of cell death. An increase in lysophospholipids, especially those lacking PUFA tails as was observed (FIG. 13E), is a hallmark of ferroptosis. In addition, the ability to rescue cell death by providing exogenous MUFAs, as was found (FIG. 12H), is another feature of ferroptotic cell death. To further confirm these findings cells were treated with ferrostatin, an inhibitor of iron-dependent oxidative damage.
To further assess the relationship to ferroptosis, a key enzyme protecting cells from ferroptotic cell death, glutathione peroxidase 4 (Gpx4) was genetically and pharmacologically targeted. […] Recent findings have shown that activation of MUFAs by Acs13 can also promote resistance to ferroptosis. Acs13 expression was not different between Aldh3a2 control and mutant leukemic cells (FIG. 13F).
as §1

In the case of `CC(=O)N[C@@H](CS)C(=O)O` [NAC, N-Acetyl-L-Cysteine], the “rescue of ALDH3A2 depleted THP-1 cells” value [1] is reported as “partial rescue in the population of cells with moderate (sh-A) but not severe (sh-B) ALDH3A2 depletion”.

“Aldh3a2-sh-1: shRNA against mouse Aldh3a2, GCAGGAAATGCTGTGATTATA (SEQ ID NO: 1)” was tested, and the “Aldh3a2 expression in L-GMPs” value [2] was “decreased Aldh3a2 expression in L-GMPs”, the “number of L-GMPs in methylcellulose” value [3] was “significantly decreases the number of L-GMPs in methylcellulose” and the “survival of recipient mice” value [4] was “survive significantly longer than control animals”. For the same compound, the “number of N-GMPs in methylcellulose” value [5] was “no difference in the number of N-GMPs”.

With “Aldh3a2-sh-2: shRNA against mouse Aldh3a2, CCTCTGGCTCTTTATGTATTT (SEQ ID NO: 2)” the “Aldh3a2 expression in L-GMPs” value [2] was “decreased Aldh3a2 expression in L-GMPs”, the “number of L-GMPs in methylcellulose” value [3] was “significantly decreases the number of L-GMPs in methylcellulose” and the “survival of recipient mice” value [4] was “survive significantly longer than control animals”.

For `CCCCCC(O)/C=C/C=O` (stereo not shown) [4-HNE, 4-hydroxynonenal], the “cellular ROS” value ([6]; 4-HNE exposure for 24 hours) was “increased cellular ROS in mutant but not control cells”, the lipid peroxidation ([7]; 4-HNE exposure) was “increased levels of lipid peroxidation in mutant but not in control cells” and the “sensitivity to 4HNE, mutant versus control” value [8] was “significantly greater in mutant than in control cells”. For the same compound, the cell growth ([8]; control and mutant cells) was “reduced cell growth”.

In the case of `CCCCCCCC/C=C\CCCCCCCC(=O)O` [oleic acid], the “rescue of the effects of Aldh3a2 depletion” value ([9]; exogenous oleic acid (18:1), conditional mutant mice) is reported as “rescued the effects of Aldh3a2 depletion” and the “concentration of maximum rescue of cells from death” value ([9]; three days culture, 62.5, 125 or 250 μM tested) is reported as 125 µM.

With `CCOC(=O)c1ccc(NC2CCCCC2)c(N)c1` [Ferrostatin] the “cell death in Aldh3a2 mutant leukemia cells” value ([10]; Ferrostatin 10 uM, FIG. 6H and 14B) was “completely prevented the cell death”.

With `CC(NC(=O)C(NC(=O)OCc1ccccc1)C(C)C)C(=O)NC(CC(=O)O)C(=O)CF` (stereo not drawn) [Z-VAD] (Cbz-Val-Ala-Asp-CH2F; configuration not given here) the “rescue of cell death in Aldh3a2 deficient cells” value ([10]; ZVAD 10 uM, Lin- cKit+ cells, FIG. 6F) was “did not rescue the cell death”.

`COC(=O)c1ccc([C@@H]2c3[nH]c4ccccc4c3C[C@@H](C(=O)OC)N2C(=O)CCl)cc1` [RSL3] was tested, and the “sensitivity of Aldh3a2 deficient Lin-cKit+ AML cells” value ([10]; RSL3 5 uM, FIG. 6I and 14C) was “increased sensitivity”.

For Vitamin E, the “total ROS” value ([6]; 4HNE plus vitamin E treatment) was “decreased total ROS in control cells but was unable to do so in mutant cells” and the lipid peroxidation ([7]; 4HNE plus vitamin E treatment) was “significantly decreased lipid peroxidation in both populations”.
